The numbers were not newly measured in US6696551B1, “225Ac-HEHA and related compounds, methods of synthesis and methods of use” (The United States of America as represented by the …, priority 1999, dated 2004), which cites them from elsewhere.

On to `O=C(O)CN(CC(=O)O)[C@H](Cc1ccc([N+](=O)[O-])cc1)CN(CC(=O)O)[C@H]1CCCC[C@@H]1N(CC(=O)O)CC(=O)O` (relative stereo) [CHXA″-DTPA, N[(R)-2-amino-3-(4-nitrophenyl)propyl]-trans-(S,S)-cyclohexane-1,2-diamine-N,N,N′,N″,N″-pentaacetic acid], for which the “maximum tolerated dose (MTD)” value (^225Ac chelate, mice) is reported as “approximately 100 kBq”. The mouse mortality (higher doses, within eight days) is on record as 100%.
